Test results from ChEMBL document CHEMBL3046472, “QSAR modeling of photosynthesis-inhibiting nostoclide derivatives” (Pest Manag Sci, 2010).
Activity calls are given as the source filed them. No cut-off for these calls is given here.

Target: Cytochrome b6-f complex subunit 4 (Spinacia oleracea) (UniProt P00166)
Assay: Inhibition of photosynthetic electron transport protein complex in Spinacia oleracea (spinach) leaf thylakoid membranes up to 100 uM measured at 30 seconds intervals for 10 min

Sequence of Cytochrome b6-f complex subunit 4 (Spinacia oleracea) (P00166 whole entry, looked up, one chain of several): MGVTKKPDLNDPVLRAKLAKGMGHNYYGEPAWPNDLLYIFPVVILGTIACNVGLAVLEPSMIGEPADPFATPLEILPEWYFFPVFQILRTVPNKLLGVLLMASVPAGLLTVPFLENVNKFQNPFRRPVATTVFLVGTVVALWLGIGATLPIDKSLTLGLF

Compound | inhibition
O=C1O/C(=C\c2ccc(Br)cc2)C=C1Cc1ccccc1 | inactive
O=C1O/C(=C\c2ccc(Cl)cc2)C=C1Cc1ccccc1 | inactive
N#Cc1cccc(/C=C2/C=C(Cc3ccccc3)C(=O)O2)c1 | inactive
O=C1O/C(=C\c2ccc(O)cc2)C=C1Cc1ccccc1 | inactive
O=C1O/C(=C\c2ccccc2O)C=C1Cc1ccccc1 | inactive
CN(C)c1ccc(/C=C2/C=C(Cc3ccccc3)C(=O)O2)c(Cl)c1 | inactive
COc1ccc(/C=C2/C=C(Cc3ccccc3)C(=O)O2)cc1O | inactive

Second part, the compound after the results:

inhibition | Compound
inactive | CN(C)c1ccc(/C=C2/C=C(Cc3ccccc3)C(=O)O2)cc1
inactive | N#Cc1ccc(/C=C2/C=C(Cc3ccccc3)C(=O)O2)cc1
inactive | O=C1O/C(=C\c2cccc(O)c2)C=C1Cc1ccccc1
inactive | O=C1O/C(=C\c2ccc3c(c2)OCO3)C=C1Cc1ccccc1
inactive | Cc1ccc(/C=C2/C=C(Cc3ccccc3)C(=O)O2)cc1
inactive | O=C1O/C(=C\c2ccc(-c3ccccc3)cc2)C=C1Cc1ccccc1
